# Experimental data taken from US9302999B2, “Substituted triazoles as herbicides” (E. I. DU PONT DE NEMOURS AND COMPANY, priority 2012, dated 2016).
# How the values were obtained:
# Assay type in all cases: in vivo
# [1] = tested on: foxtail, green (green foxtail Setaria viridis); assay: Test F pre-/postemergence: foxtail, green; conditions: Preemergence
# Source text: (§1) Seeds of plant species selected from corn (Zea mays), soybean (Glycine max), velvetleaf (Abutilon theophrasti), lambsquarters (Chenopodium album), poinsettia, wild (wild poinsettia, Euphorbia heterophylla), pigweed, palmer (palmer pigweed, Amaranthus palmeri), waterhemp (common waterhemp, Amaranthus rudis), surinam grass (Brachiaria decumbens), crabgrass, Brazil (Brazilian crabgrass, Digitaria horizontalis), panicum, fall (fall panicum Panicum dichotomiflorum), crabgrass, large (large crabgrass, Digitaria sanguinalis), foxtail, giant (giant foxtail, Setaria faberii), foxtail, green (green foxtail Setaria viridis), goosegrass (Eleusine indica), ragweed (common ragweed, Ambrosia elatior), barnyardgrass (Echinochloa crus-galli), sandbur (southern sandbur, Cenchrus echinatus), arrowleaf sida (Sida rhombifolia), ryegrass, Italian (Italian ryegrass, Lolium multiflorum), dayflower, VA (Virginia (VA) dayflower, Commelina virginica), field bindweed (Convolvulus arvensis), cocklebur (common cocklebur, Xanthium strumarium), morningglory (Ipomoea coccinea), nightshade (eastern black nightshade, Solanum ptycanthum), kochia (Kochia scoparia), nutsedge, yellow (yellow nutsedge, Cyperus esculentus), johnsongrass (Sorghum halepense), smartweed (ladysthumb smartweed, Polygonum persicaria), and beggarticks (hairy beggarticks, Bidens pilosa), were planted into a silt loam soil and treated preemergence with test chemicals formulated in a non-phytotoxic solvent mixture which included a surfactant. At the same time, plants selected from these crop and weed species and also pigweed (Amaranthus retroflexus), waterhemp_RES1 (ALS/Triazine resistant common waterhemp, Amaranthus rudis) and waterhemp_RES2 (ALS/HPPD resistant common waterhemp, Amaranthus rudis) were planted in pots containing a planting medium comprising spaghnum peat moss, vermiculite, wetting agent and starter nutrients treated with postemergence applications of some of the test chemicals formulated in the same manner. Plants ranged in height from 2 to 18 cm for postemergence treatments (1- to 4-leaf stage).
# (§2) Treated plants and controls were maintained in a greenhouse for 14 to 21 days, after which time all species were compared to controls and visually evaluated. Plant response ratings, summarized in Table E, are based on a scale of 0 to 100 where 0 is no effect and 100 is complete control. A dash (-) response means no test result.
# [2] = tested on: surinam grass (Brachiaria decumbens); assay: Test F pre-/postemergence: surinam grass; conditions: Preemergence
# Source text: as §1, §2
# [3] = tested on: panicum, fall (fall panicum Panicum dichotomiflorum); assay: Test F pre-/postemergence: panicum, fall
# Outline: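 Seeds were sown in silt loam soil and sprayed preemergence with test chemical in a non-phytotoxic solvent mixture containing surfactant; postemergence treatments went onto plants 2 to 18 cm tall (1- to 4-leaf stage) grown in peat moss/vermiculite medium. After 14 to 21 days in a greenhouse, injury was rated visually against controls, 0 (no effect) to 100 (complete control).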
# [4] = tested on: mustard, wild (wild mustard, Sinapis arvensis); assay: Test D pre-/postemergence: mustard, wild
# Source text: (§3) Seeds of plant species selected from bluegrass (annual bluegrass, Poa annua), blackgrass (Alopecurus myosuroides), canarygrass (Phalaris minor), chickweed (common chickweed, Stellaria media), galium (catchweed bedstraw, Galium aparine), bromegrass, downy (downy bromegrass, Bromus tectorum), field poppy (Papaver rhoeas), field violet (Viola arvensis), foxtail, green (green foxtail, Setaria viridis), deadnettle (henbit deadnettle, Lamium amplexicaule), ryegrass, Italian (Italian ryegrass, Lolium multiflorum), kochia (Kochia scoparia), lambsquarters (Chenopodium album), oilseed rape (Brassica napus), pigweed (Amaranthus retroflexus), Russian thistle (Salsola iberica), chamomile (scentless chamomile, Matricaria inodora), speedwell (bird's-eye speedwell, Veronica persica), barley, spring (spring barley, Hordeum vulgare), wheat, spring (spring wheat, Triticum aestivum), buckwheat, wild (wild buckwheat, Polygonum convolvulus), mustard, wild (wild mustard, Sinapis arvensis), oat, wild (wild oat, Avena fatua), radish, wild (wild radish, Raphanus raphanistrum), windgrass (Apera spica-venti), barley, winter (winter barley, Hordeum vulgare), and wheat, winter (winter wheat, Triticum aestivum) were planted into a silt loam soil and treated preemergence with test chemicals formulated in a non-phytotoxic solvent mixture which included a surfactant. At the same time, these same crop and weed species were planted in pots containing the planting medium comprising spaghnum peat moss, vermiculite, wetting agent and starter nutrients and treated with postemergence applications of the test chemicals formulated in the same manner. Plants ranged in height from 2 to 18 cm (1- to 4-leaf stage).
# as §2, with “controlled growth environment” for “greenhouse”, “days” for “days,”, “D,” for “E,”
# kochia (Kochia scoparia) = assay: Test D pre-/postemergence: kochia
# Source text: as §3
# as §2, with “controlled growth environment” for “greenhouse”, “days” for “days,”, “D,” for “E,”
# [5] = tested on: lambsquarters (Chenopodium album); assay: Test D pre-/postemergence: lambsquarters
# Source text: as §3
# as §2, with “controlled growth environment” for “greenhouse”, “days” for “days,”, “D,” for “E,”
# [6] = 16 g ai/ha, scale 0 to 100, 0 no effect, 100 complete control
# [7] = 31 g ai/ha, scale 0 to 100, 0 no effect, 100 complete control
# [8] = Postemergence, 250 g ai/ha, scale 0 to 100
# [9] = Postemergence, 16 g ai/ha, scale 0 to 100
# [10] = Postemergence, 31 g ai/ha, scale 0 to 100
# [11] = Postemergence, 62 g ai/ha, scale 0 to 100
# [12] = Postemergence, 125 g ai/ha, scale 0 to 100
# [13] = Preemergence, 16 g ai/ha, scale 0 to 100, 0 no effect, 100 complete control
# [14] = Preemergence, 31 g ai/ha, scale 0 to 100, 0 no effect, 100 complete control
# [15] = Preemergence, 125 g ai/ha, scale 0 to 100
# [16] = Preemergence, 250 g ai/ha, scale 0 to 100
# [17] = Postemergence, 31 g ai/ha, scale 0 to 100 (0 no effect, 100 complete control)
# [18] = Postemergence, 62 g ai/ha, scale 0 to 100 (0 no effect, 100 complete control)
# [19] = Postemergence, 125 g ai/ha, scale 0 to 100, 0 no effect, 100 complete control
# [20] = Preemergence, 62 g ai/ha, scale 0 to 100
# [21] = 8 g ai/ha, scale 0 to 100, 0 no effect, 100 complete control
smiles,measurement,setting,value
CCc1nn(-c2ccc(C(F)(F)F)cc2)nc1Oc1ccnc(C(F)(F)F)c1 [Compound 169],"Plant response rating, Foxtail, Green",[1]; [6],98
same,"Plant response rating, Foxtail, Green",[1]; [7],100
same,"Plant response rating, Foxtail, Green","[1]; 62 g ai/ha, scale 0 to 100",100
same,"Plant response rating, Foxtail, Green","[1]; 125 g ai/ha, scale 0 to 100",100
same,"Plant response rating, Foxtail, Green","[1]; 250 g ai/ha, scale 0 to 100",100
same,"Plant response rating, Surinam Grass",[2]; [6],0
same,"Plant response rating, Surinam Grass",[2]; [7],65
same,"Plant response rating, Surinam Grass","[2]; 125 g ai/ha, scale 0 to 100",75
same,"Plant response rating, Surinam Grass","[2]; 250 g ai/ha, scale 0 to 100",100
same,"Plant response rating, Panicum, Fall",[3]; [8],30
same,"Plant response rating, Panicum, Fall",[3]; [9],10
same,"Plant response rating, Panicum, Fall",[3]; [10],15
same,"Plant response rating, Panicum, Fall",[3]; [11],20
same,"Plant response rating, Panicum, Fall",[3]; [12],25
same,"Plant response rating, Panicum, Fall",[3]; [13],65
same,"Plant response rating, Panicum, Fall",[3]; [14],100
same,"Plant response rating, Panicum, Fall",[3]; [15],100
same,"Plant response rating, Panicum, Fall",[3]; [16],100
CCc1nn(-c2ccc(F)c(F)c2)nc1Oc1ccnc(C(F)(F)F)c1 [Compound 171],"Plant response rating, Foxtail, Green",[1]; [6],20
same,"Plant response rating, Foxtail, Green",[1]; [7],50
same,"Plant response rating, Foxtail, Green","[1]; 62 g ai/ha, scale 0 to 100",95
same,"Plant response rating, Foxtail, Green","[1]; 125 g ai/ha, scale 0 to 100",100
same,"Plant response rating, Foxtail, Green","[1]; 250 g ai/ha, scale 0 to 100",100
same,"Plant response rating, Surinam Grass",[2]; [6],0
same,"Plant response rating, Surinam Grass",[2]; [7],0
same,"Plant response rating, Surinam Grass","[2]; 125 g ai/ha, scale 0 to 100",10
same,"Plant response rating, Surinam Grass","[2]; 250 g ai/ha, scale 0 to 100",30
same,"Plant response rating, Panicum, Fall",[3]; [13],0
same,"Plant response rating, Panicum, Fall",[3]; [14],65
same,"Plant response rating, Panicum, Fall",[3]; [15],100
same,"Plant response rating, Panicum, Fall",[3]; [16],100
CCCc1nn(-c2ccc(F)c(F)c2)nc1Oc1ccnc(C(F)(F)F)c1 [Compound 172],"Plant response rating, Foxtail, Green",[1]; [7],75
same,"Plant response rating, Foxtail, Green","[1]; 125 g ai/ha, scale 0 to 100",100
same,"Plant response rating, Foxtail, Green","[1]; 250 g ai/ha, scale 0 to 100",100
same,"Plant response rating, Surinam Grass",[2]; [7],20
same,"Plant response rating, Surinam Grass","[2]; 125 g ai/ha, scale 0 to 100",35
same,"Plant response rating, Surinam Grass","[2]; 250 g ai/ha, scale 0 to 100",98
same,"Plant response rating, Panicum, Fall",[3]; [8],50
same,"Plant response rating, Panicum, Fall",[3]; [10],20
same,"Plant response rating, Panicum, Fall",[3]; [12],50
same,"Plant response rating, Panicum, Fall",[3]; [14],75
same,"Plant response rating, Panicum, Fall",[3]; [15],100
same,"Plant response rating, Panicum, Fall",[3]; [16],100
"CCOc1nn(-c2ccc(F)cc2)nc1Cc1ccnc(C(F)(F)F)c1 [Compound 196, 4-[[5-ethoxy-2-(4-fluorophenyl)-2H-1,2,3-triazol-4-yl]methyl]-2-(trifluoromethyl)pyridine]","Plant response rating: Mustard, Wild",[4]; [17],100
same,"Plant response rating: Mustard, Wild",[4]; [18],100
same,"Plant response rating: Mustard, Wild",[4]; [19],100
same,"Plant response rating, Mustard, Wild",[4]; [9],100
same,"Plant response rating, Mustard, Wild",[4]; [13],35
same,"Plant response rating, Mustard, Wild",[4]; [14],95
same,"Plant response rating, Mustard, Wild",[4]; [20],100
same,"Plant response rating, Mustard, Wild",[4]; [15],100
same,"Plant response rating, Foxtail, Green",[1]; [21],75
same,"Plant response rating, Foxtail, Green",[1]; [6],75
same,"Plant response rating, Foxtail, Green",[1]; [7],85
same,"Plant response rating, Foxtail, Green","[1]; 62 g ai/ha, scale 0 to 100",100
same,"Plant response rating, Foxtail, Green","[1]; 125 g ai/ha, scale 0 to 100",100
same,"Plant response rating, Surinam Grass",[2]; [21],0
same,"Plant response rating, Surinam Grass",[2]; [7],15
same,"Plant response rating, Surinam Grass","[2]; 125 g ai/ha, scale 0 to 100",100
same,Plant response rating: Kochia,kochia (Kochia scoparia); [17],85
same,Plant response rating: Kochia,kochia (Kochia scoparia); [18],90
same,Plant response rating: Kochia,kochia (Kochia scoparia); [19],90
same,"Plant response rating, Kochia",kochia (Kochia scoparia); [9],70
same,"Plant response rating, Kochia",kochia (Kochia scoparia); [13],35
same,"Plant response rating, Kochia",kochia (Kochia scoparia); [14],70
same,"Plant response rating, Kochia",kochia (Kochia scoparia); [20],100
same,"Plant response rating, Kochia",kochia (Kochia scoparia); [15],100
same,Plant response rating: Lambsquarters,[5]; [17],90
same,Plant response rating: Lambsquarters,[5]; [18],90
same,Plant response rating: Lambsquarters,[5]; [19],95
same,"Plant response rating, Lambsquarters",[5]; [9],85
same,"Plant response rating, Lambsquarters",[5]; [13],55
same,"Plant response rating, Lambsquarters",[5]; [14],65
same,"Plant response rating, Lambsquarters",[5]; [20],100
same,"Plant response rating, Lambsquarters",[5]; [15],100
same,"Plant response rating, Panicum, Fall","[3]; Postemergence, 8 g ai/ha, scale 0 to 100",20
same,"Plant response rating, Panicum, Fall",[3]; [9],40
same,"Plant response rating, Panicum, Fall",[3]; [10],80
same,"Plant response rating, Panicum, Fall",[3]; [11],85
same,"Plant response rating, Panicum, Fall",[3]; [12],85
same,"Plant response rating, Panicum, Fall","[3]; Preemergence, 8 g ai/ha, scale 0 to 100, 0 no effect, 100 complete control",25
same,"Plant response rating, Panicum, Fall",[3]; [14],98
same,"Plant response rating, Panicum, Fall",[3]; [15],100
